According to patent publication US20050272677A1, “Delivery of a substance to a pre-determined site” (priority 2002, published 2005):
Like-named read-outs stand apart in the source and are kept apart here.

Tests used:
[1] = In vivo delivery of luciferase DNA complexed with Sunfish amphiphiles; set-up: species or system mouse; settings: for gene expression (Luciferase) after intravenous injection of complexed DNA: 24 hours, efficiency order SF-46>SF-36>SF-6>SF-30>SF-63
Method: Sunfish (SF) amphiphiles were tested and compared to DOTAP, a commercially available amphiphile (Avanti Polar Lipids). The used plasmid DNA codes for Luciferase, which is expressed upon transfection. Luciferase activity represents the efficiency of transfection. Liposomes were prepared by drying the Sunfish amphiphiles or DOTAP in glass tubes under a nitrogen flow followed by being under vacuum for one hour. The lipid film was resuspended in 20% sucrose by mixing and warming up for five minutes to 60° C. in a water bath. The liposomal suspension was then sonicated for three minutes. For lipoplexes formation, plasmid DNA (30 μg/mouse) diluted in 20% sucrose was added to the liposomes (450 nmol/mouse) under mixing. The lipoplexes were allowed to rest at room temperature for […] and were intravenously injected (150 μl) in male BALB/c mice. Organs (lungs, heart, liver, spleen and kidneys) were collected 24 hours after injection for analysis. Luciferase activity was measured in homogenates of the different organs and related to a standard curve obtained with purified recombinant Luciferase.

MscL = MscL (Escherichia coli, UniProt P0A742, G22C); assay type: biochemical, E. coli; set-up: made in house; host or cells: E. coli PB104; settings: G22C in DOPC:DOPS liposomes; 2.5 mM MTSEA, 10 mM MTSES
Method: Results Overexpression and Purification of the MscL Channel Protein
Samples were prepared and calcein efflux was monitored as described elsewhere in Example 1.
300 μl of detergent-treated liposomes were gently mixed with 240 μl of 0.25 mg/ml purified MscL-mutant G22C in elution buffer containing 0.2% Triton X-100. The mixture was incubated at 60° C. for 45 minutes, followed by the addition of an equal volume (540 μl) of calcein-loading buffer, containing 200 mM calcein, 25 mM Tris, 1 mM EDTA, pH 8.0. After addition of 20 mg of Triton X-100-absorbing Bio-Beads SM-2, the mixture was gently agitated for one hour at room temperature. Subsequently, 80 mg Bio-Beads were added and incubated at 4° C. overnight under mild agitation. Samples were prepared for calcein efflux assay as described elsewhere.

[2] = Gelation experiment (gel formation in solvents); assay type: physicochemical
Method: To obtain a gel or to thicken the solvent, the compound is mixed with the required solvent or a mixture of solvents in an amount between 0.01 and 50 wt. %, based on the weight of the composition. Typically, the dissolution of the components will be performed by heating (in some cases it may be helpful to homogenize the components, e.g., vortex) them together at temperatures of 20° C. to 200° C., preferably 50° C. to 150° C. Cooling these hot solutions to a preferred temperature in the range of −20° C. to 100° C., preferably 4° C. to 100° C. affords the gel or thickened solvent. […] In an alternative embodiment, the gelling agent is first dissolved in a polar or apolar solvent followed by the addition of another solvent or solvent mixture, thereby causing gelation to take place.
It will be understood that the use of the present gelling agents or thickeners to prepare a gel or to thicken a composition is also encompassed by the invention. As is well-known, gelling behavior of compounds or compositions is highly unpredictable. […] Preferably, the gelling phenomenon is thermoreversible.
In a typical gelation experiment, a carefully weighed amount of the dithienylcyclopentene derivative under investigation and 1 ml of the solvent are placed in a test tube, which is sealed and then heated until the compound is dissolved. The solution is allowed to cool to room temperature. […] The gelation process could be followed by UV-vis and CD spectroscopy as depicted in FIG. 58. At low concentrations (0.35 mM), compound D is dissolved in toluene. […] Increasing the concentration to 1.8 mM causes gelation of the solvent, which is accompanied by a change of the UV-visible spectrum, together with the appearance of a strong CD signal at 323 nm (FIG. 58, panels (a) and (c)). Similar changes in the UV-vis and CD spectrum are observed upon gelation of the 1.8 mM solution of D in toluene by cooling to a temperature below the sol-gel phase transition (from here on, referred to as gel(o)). From a plot of the increase of the CD signal versus the temperature, the sol-gel phase transition temperature of gel(o) was determined to be 29° C. for a 1.8 mM solution of D in toluene.

[3] = pH as stimulus for gel-to-sol and sol-to-gel transitions; assay type: physicochemical
From the text: Addition of base to a gel of 1 led to a decrease in melting temperature of the gel. Above pH>4.06, gelation was no longer observed (reversible process; see FIG. 50).
Compound 15 can gelate water and undergoes a sol-to-gel transition around pH=4.93 at room temperature (for a 0.5 wt % gel).

[4] = Gelation in the presence of surfactants and polymeric micelles; assay type: physicochemical; set-up: key: G = gel; C = crystalline; G^a: ^a= not stable
[5] = as above; assay type: physicochemical; set-up: key: g = gel; i = insoluble; p = precipitate; sol = soluble
[6] = Release of quinolines from DBC gels by UV-Vis spectroscopy; assay type: physicochemical; settings: into 1 mL PBS pH 7.4, initial 0.001M
From the text: Entrapment of 8-aminoquinoline and 2-hydroxyquinoline (FIG. 61) was achieved by adding a PBS (phosphate-buffered saline) pH 7.4 solution of the quinoline of interest to X mg of DBC (dibenzoyl cystine); X=2, 3.5, 5 or 10, depending on the weight percentage (wt %) of gelator desired. The sample was then heated in a closed vial until complete dissolution of DBC was observed and subsequently allowed to cool to room temperature where gelation of the sample and, thus, entrapment of the quinolines in the gel occured.
After 24 hours, percentages of 8-aminoquinoline and 2-hydroxyquinoline released from DBC gels of different weight percentages into 1mL of PBS solution at pH 7.4 in contact with the gel, were measured by UV-Vis spectroscopy and are reported in Table J. The initial quinoline concentration in the gel was 0.001M. The error on each percentage is ±4%.

Chain of MscL (P0A742 whole entry G22C): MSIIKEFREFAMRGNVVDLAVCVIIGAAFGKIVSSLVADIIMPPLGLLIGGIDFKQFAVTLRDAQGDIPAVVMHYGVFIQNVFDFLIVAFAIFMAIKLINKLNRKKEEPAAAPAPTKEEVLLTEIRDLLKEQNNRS

CCCCCCCC/C=C\CCCCCCCCCc1cc[n+](CCCCCCCCCCCCCCCCCC)cc1 [SF-46, 1-stearyl-4-(10′-cis-nonadecenyl)-pyridinium Chloride]
Luciferase activity in the lungs compared to DOTAP ([1]; 24 hours after i.v. injection): five times higher
gene expression (Luciferase) after intravenous injection of complexed DNA [1]: resulted in gene expression in the lungs

2-aminoethyl methanethiosulfonate [MTSEA, reference compound]
calcein release upon addition of MTS compound, versus MTSET (MscL): the kinetics of release are significantly slower

CSCC[C@H](NC(=O)[C@H]1C[C@@H](C(=O)N[C@@H](CCSC)C(=O)NCCc2c[nH]cn2)C[C@@H](C(=O)N[C@@H](CCSC)C(=O)NCCc2c[nH]cn2)C1)C(=O)NCCc1c[nH]cn1 [gelator 15, CHexAmMetHista]
solvents gelated ([2]; listed as 15): water
solvents gelated ([2]; listed as CHex-Am-Met-Hista): water and lower alcohols
pH of sol-to-gel transition [3]: ~4.93

CHexAmMetAmCH2Pyr [gelator 6]
solvents gelated [2]: water:alcohol mixtures (1:1)
state ([2]; DMSO): soluble
state ([2]; EtOH): soluble
state ([2]; H2O/EtOH (1:1), weight % 1.0, 0.5, 0.25): gel
state ([2]; H2O/EtOH (2:1), weight % 0.16): gel
state ([2]; H2O/EtOH (4:1), weight % 1.0, 0.5): gel (turbid)
state ([2]; H2O/MeOH (1:1), weight % 0.5, 0.25): gel
state ([2]; H2O/MeOH (4:1), weight % 1.0, 0.5): gel (turbid)
state ([2]; H2O, weight % 0.05): insoluble
state ([2]; MeOH): soluble
pH of sol-to-gel transition ([3]; room temperature, 0.5 wt % in MeOH:H2O=1:1): ~4.47

CCCCCCCC/C=C\CCCCCCCC[n+]1ccc(CCCCCCCCCCCCC)cc1.[Cl-] [SF-30, 1-(9′-cis-octadecenyl)-4-tridecyl-pyridinium Chloride]
gene expression (Luciferase) after intravenous injection of complexed DNA [1]: resulted in gene expression in the lungs

COC(=O)[C@H](CCSC)NC(=O)[C@H]1C[C@@H](C(=O)N[C@@H](CCSC)C(=O)OC)C[C@@H](C(=O)N[C@@H](CCSC)C(=O)OC)C1 [9a, CHexAmMetOMe]
solvents gelated [2]: both organic solvents and water
effect of sufficient amounts of base on the gel [3]: causes dissolution of these gels

CSCC[C@H](NC(=O)[C@H]1C[C@@H](C(=O)N[C@@H](CCSC)C(=O)O)C[C@@H](C(=O)N[C@@H](CCSC)C(=O)O)C1)C(=O)O [gelator 1, CHexAmMetOH]
solvents gelated [2]: water and lower alcohols
pH above which gelation was no longer observed ([3]; addition of base, reversible): 4.06
Gelation properties ([4]; CTAB < CMC, * pH reversible gelation): C
Gelation properties ([4]; CTAB < CMC, ** pH reversible then thermoreversible gelation): C
Gelation properties ([4]; CTAB > CMC, * pH reversible gelation): C
Gelation properties ([4]; CTAB > CMC, ** pH reversible then thermoreversible gelation): C
Gelation properties ([4]; Lactose der. < CMC, * pH reversible gelation): G
Gelation properties ([4]; Lactose der. < CMC, ** pH reversible then thermoreversible gelation): G
Gelation properties ([4]; Lactose der. > CMC, * pH reversible gelation): G
Gelation properties ([4]; Lactose der. > CMC, ** pH reversible then thermoreversible gelation): G
Gelation properties ([4]; Nonionic (Lactose der.) < CMC): G
Gelation properties ([4]; Nonionic (Lactose der.) > CMC): G
Gelation properties ([4]; SDS < CMC, * pH reversible gelation): G
Gelation properties ([4]; SDS < CMC, ** pH reversible then thermoreversible gelation): G
Gelation properties ([4]; SDS > CMC, * pH reversible gelation): G
Gelation properties ([4]; SDS > CMC, ** pH reversible then thermoreversible gelation): G
Gelation properties ([4]; anionic (SDS) < CMC): G
Gelation properties ([4]; anionic (SDS) > CMC): G
Gelation properties ([4]; cationic (CTAB) < CMC): C
Gelation properties ([4]; cationic (CTAB) > CMC): C
Gelation properties ([5]; Pluronic P 105, 5 mg · ml^−1): p
Gelation properties ([5]; Pluronic P 105, 5 mg · ml^−1, * pH reversible gelation): g
Gelation properties ([5]; Pluronic P 105, 5 mg · ml^−1, ** pH reversible then thermoreversible gelation): p
Gelation properties ([5]; Pluronic P 105, 100 mg · ml^−1): p
Gelation properties ([5]; Pluronic P 105, 100 mg · ml^−1, * pH reversible gelation): g
Gelation properties ([5]; Pluronic P 105, 100 mg · ml^−1, ** pH reversible then thermoreversible gelation): p

CCCCCCCCCCCCCCCC[n+]1ccc(CCCCCCCCCCCCC)cc1.[Cl-] [SF-36, 1-hexadecyl-4-tridecyl-pyridinium Chloride]
gene expression (Luciferase) after intravenous injection of complexed DNA [1]: resulted in gene expression in the lungs

CHexAmPheGlyOH [gelator 3]
effect of sufficient amounts of base on the gel [3]: causes dissolution of these gels

CHexAmAspOMe [gelator 8]
effect of sufficient amounts of base on the gel [3]: causes dissolution of these gels

Nc1cccc2cccnc12 [8-aminoquinoline]
percentage released from DBC gel after 24 hours ([6]; DBC 0.35 wt %): 15%
percentage released from DBC gel after 24 hours ([6]; DBC 0.5 wt %): 12%
percentage released from DBC gel after 24 hours ([6]; DBC 1.0 wt %): 10%

Oc1ccc2ccccc2n1 [2-hydroxyquinoline]
percentage released from DBC gel after 24 hours ([6]; DBC 0.35 wt %): 38%
percentage released from DBC gel after 24 hours ([6]; DBC 0.5 wt %): 37%
percentage released from DBC gel after 24 hours ([6]; DBC 1.0 wt %): 36%

sodium (2-sulfonatoethyl)methane thiosulfonate [MTSES, reference compound]
calcein release upon addition of MTS compound, versus MTSET (MscL): the kinetics of release are significantly slower

CCCCCCCC/C=C\CCCCCCCCCc1cc[n+](CCCCCCCC/C=C\CCCCCCCC)cc1.[Cl-] [SF-6, 1-(9′-cis-octadecenyl)-4-(10″-cis-nonadecenyl)pyridinium Chloride]
gene expression (Luciferase) after intravenous injection of complexed DNA [1]: resulted in gene expression in the lungs
